Our source for the Ki values is paper PMC12004706, “In vitro inhibition of voltage-dependent sodium currents by the antifungal drug amorolfine” (The Journal of Biological Chemistry, 2025).

The target in this assay is T1, Nav1.7 (Homo sapiens, UniProt Q15858).
T1 construct: gene SCN9A; human Nav1.7 channels stably transfected in Expi293F cells
The assay is described as follows: automated whole-cell patch clamp (Qube-384); inverse apparent IC50 vs holding potential fit with four-state binding model. The assay is classed as cell-based. A general note: The patch-clamp technique gives a direct electrical read-out from membranes.

T1 sequence (Q15858 whole entry): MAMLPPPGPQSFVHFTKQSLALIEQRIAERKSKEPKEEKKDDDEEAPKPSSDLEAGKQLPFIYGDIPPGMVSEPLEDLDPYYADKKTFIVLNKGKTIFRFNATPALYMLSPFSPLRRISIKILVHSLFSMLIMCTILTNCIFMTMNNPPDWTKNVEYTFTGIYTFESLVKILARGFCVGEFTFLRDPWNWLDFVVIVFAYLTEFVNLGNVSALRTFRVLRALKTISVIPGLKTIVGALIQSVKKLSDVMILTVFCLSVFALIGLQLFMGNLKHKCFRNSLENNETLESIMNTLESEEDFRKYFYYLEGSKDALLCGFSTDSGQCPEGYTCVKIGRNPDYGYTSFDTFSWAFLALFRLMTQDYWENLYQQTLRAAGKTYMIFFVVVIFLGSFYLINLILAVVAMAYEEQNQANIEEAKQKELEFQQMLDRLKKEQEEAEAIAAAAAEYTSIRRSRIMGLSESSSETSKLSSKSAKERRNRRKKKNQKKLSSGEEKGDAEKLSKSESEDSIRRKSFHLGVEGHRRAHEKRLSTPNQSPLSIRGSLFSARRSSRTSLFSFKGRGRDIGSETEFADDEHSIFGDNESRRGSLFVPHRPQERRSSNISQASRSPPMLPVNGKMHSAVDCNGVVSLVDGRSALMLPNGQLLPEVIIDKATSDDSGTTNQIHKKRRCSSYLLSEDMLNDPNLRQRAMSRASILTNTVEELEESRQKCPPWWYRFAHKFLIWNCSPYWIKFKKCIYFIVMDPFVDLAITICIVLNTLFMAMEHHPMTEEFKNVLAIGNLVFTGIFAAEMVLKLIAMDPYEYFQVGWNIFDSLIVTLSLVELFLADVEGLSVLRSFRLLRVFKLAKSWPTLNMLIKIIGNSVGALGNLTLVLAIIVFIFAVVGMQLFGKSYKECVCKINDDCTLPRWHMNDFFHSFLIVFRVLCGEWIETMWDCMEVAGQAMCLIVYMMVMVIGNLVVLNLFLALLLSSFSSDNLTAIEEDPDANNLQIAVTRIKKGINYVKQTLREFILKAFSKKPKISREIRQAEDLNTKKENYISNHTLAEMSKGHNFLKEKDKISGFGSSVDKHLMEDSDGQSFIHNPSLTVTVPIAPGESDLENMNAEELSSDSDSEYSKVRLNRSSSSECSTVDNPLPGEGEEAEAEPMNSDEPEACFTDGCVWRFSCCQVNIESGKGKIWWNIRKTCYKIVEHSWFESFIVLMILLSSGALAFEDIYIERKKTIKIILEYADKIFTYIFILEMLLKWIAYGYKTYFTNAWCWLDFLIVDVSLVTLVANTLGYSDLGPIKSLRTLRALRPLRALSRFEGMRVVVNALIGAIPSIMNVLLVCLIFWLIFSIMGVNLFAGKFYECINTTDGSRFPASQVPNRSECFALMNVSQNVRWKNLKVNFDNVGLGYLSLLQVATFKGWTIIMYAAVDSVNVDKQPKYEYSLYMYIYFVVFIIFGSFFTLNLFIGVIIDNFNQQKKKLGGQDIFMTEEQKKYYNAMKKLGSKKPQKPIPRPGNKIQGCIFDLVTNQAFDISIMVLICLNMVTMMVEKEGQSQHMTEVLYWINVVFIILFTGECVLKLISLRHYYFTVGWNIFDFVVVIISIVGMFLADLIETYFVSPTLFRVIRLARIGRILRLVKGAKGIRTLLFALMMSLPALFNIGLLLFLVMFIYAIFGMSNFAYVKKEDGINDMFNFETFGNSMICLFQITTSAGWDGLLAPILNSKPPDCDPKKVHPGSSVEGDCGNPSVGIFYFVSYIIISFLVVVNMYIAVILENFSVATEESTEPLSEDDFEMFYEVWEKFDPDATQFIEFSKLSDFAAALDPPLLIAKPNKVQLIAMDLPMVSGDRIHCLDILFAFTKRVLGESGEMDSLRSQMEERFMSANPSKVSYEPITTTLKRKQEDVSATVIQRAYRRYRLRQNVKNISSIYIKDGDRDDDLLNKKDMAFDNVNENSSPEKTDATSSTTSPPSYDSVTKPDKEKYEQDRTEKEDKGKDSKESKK

Regarding `CCC(C)(C)c1ccc(CC(C)CN2C[C@@H](C)O[C@@H](C)C2)cc1` (stereo partly shown) [AMF, amorolfine], the Ki is 3.6 µM.
